Data from patent US20220040304A1, “A COMPOSITION FOR CANCER CELL DEATH AND ITS USE” (Industry-University Cooperation Foundation Hanyang …, priority 2018, published 2022).

Columns and labels:
Type in all cases: cell-based, human
MCF-7 cells [1] = test: MTT colorimetric change and cell viability after light irradiation; settings: MCF-7, protein 10 μM 24 hours, light 10 mW/cm^2, no Co-h
Experimental: MCF-7 cells were seeded at 5×10^5 cells/mL in a 96-well plate (SPL Cell Culture Plate, 96 well (SPL, Cat #30096)), and cultured at 37° C. for 24 hours (overnight). After the overnight culture, the cells were washed with FBS & Phenol red-free media (RPMI, Well Gene., Korea, Cat #LM011-02), and 100 μL of an FBS-free medium containing the purified protein (final concentration: 10 μM) was added, followed by reaction at 37° C. for 24 hours. After the reaction for 24 hours, the cells were washed with FBS & Phenol red-free media (RPMI), and then 100 μL of FBS & Phenol red-free media (RPMI) was added again. After light irradiation at 10 mW/cm^2 over time, the cells were washed with FBS & Phenol red-free media (RPMI), and 100 μL of FBS & Phenol red-free media (RPMI) was added again. 10 μL of 3-(4,5-dimethylthiazol-2-yl)-2,5-diphenyltetrazolium bromide (MTT; Cell Biolabs Inc., USA; final concentration: 1×) was added, followed by reaction at 37° C. for 4 hours. 100 μL of a supernatant was removed, and 100 μL of DMSO (Sigma-Aldrich., USA) was added, followed by reaction for 10 minutes. The colorimetric change of MTT according to a protein type treated to the cells and light irradiation time was confirmed, and then cell viability was confirmed by measuring the absorbance intensity at 570 nm using a plate reader.

MCF-7 cells [2] = test: MTT colorimetric change and cell viability after reaction with Co-h substrate; settings: MCF-7, protein 10 μM 24 hours, Co-h 150 μM, without light irradiation
Experimental: MCF-7 cells were seeded at 5×10^5 cells/mL in a 96-well plate (SPL Cell Culture Plate, 96 well (SPL, Cat #30096)), and cultured at 37° C. for 24 hours (overnight).
After the culture for 24 hours, the cells were washed with FBS & Phenol red-free media (RPMI), and 100 μL of an FBS-free medium containing the purified protein (final concentration: 10 μM) was added, followed by reaction at 37° C. for 24 hours.
After the reaction for 24 hours, the cells were washed with FBS & Phenol red-free media (RPMI), and then 100 μL of FBS & Phenol red-free media (RPMI) containing a Co-h substrate solution (final concentration: 150 μM) was added. The cells were washed with FBS & Phenol red-free media (RPMI), and 100 μL of fresh FBS & Phenol red-free media (RPMI) were then added.
10 μL of 3-(4,5-dimethylthiazol-2-yl)-2,5-diphenyltetrazolium bromide (MTT) (final concentration: 1×) was added, followed by reaction at 37° C. for 4 hours. After 100 μL of a supernatant was removed, 100 μL of DMSO was added, followed by reaction for 10 minutes. The colorimetric change of MTT according to a protein type treated to the cells and the light irradiation time was checked, and then cell viability was confirmed by measuring the absorbance intensity at 570 nm using a plate reader. […]

MCF-7 cells [3] = test: Cell death by SYTOX Green or EthD-1 and DAPI fluorescence (light irradiation or Co-h); settings: MCF-7, protein 10 μM 24 hours; light 10 mW/cm^2 or Co-h 150 μM over time
Experimental: MCF-7 cells were seeded at 5×10^5 cells/mL in a 96-well plate (SPL Cell Culture Plate, 96 well (SPL, Cat #30096)), and cultured at 37° C. for 24 hours (overnight). After the culture for 24 hours, the cells were washed with FBS & Phenol red-free media (RPMI), and 100 μL of an FBS-free medium containing the purified protein (final concentration: 10 μM) was added, followed by reaction at 37° C. for 24 hours.
After the reaction for 24 hours, the cells were washed with FBS & Phenol red-free media (RPMI), and then 100 μL of FBS & Phenol red-free media (RPMI) was then added.
After the reaction, 8.1 μL of FMN (final concentration: 150 μM) was added. […]
SYTOX Green or EthD-1 and DAPI fluorescence images were observed using a confocal microscope according to a protein type treated to cells and i) light irradiation time or ii) reaction time with a Co-h substrate, and cell death was confirmed by measuring relative fluorescence intensity at an excitation wavelength of 504 nm and an emission wavelength of 523 nm of SYTOX Green, and an excitation wavelength of 525 nm and an emission wavelength of 590 nm of EthD-1 using a plate reader.
Whether or not Cell death was observed by fluorescence microscopy using SYTOX Green (dead cell-specific dye, green) or EthD-1 (dead cell-specific dye, red) and DAPI (live cell-specific dye, blue).

Substance | cell viability / colorimetric change of MTT with light irradiation time (MCF-7 cells [1]) | cell viability / colorimetric change of MTT with reaction time with Co-h (MCF-7 cells [2]) | cell death by staining (SYTOX Green or EthD-1 dead cells, DAPI live cells) (MCF-7 cells [3])
MS: first protein MiniSOG, ROS-generating protein (singlet oxygen), expressed from pRSET-MiniSOG, 13 kDa [reference compound] | alive | the staining becomes pink | stained with DAPI
RLuc8-MS: fusion protein of RLuc8 and MiniSOG without lead peptide, 53 kDa | alive | the staining becomes pink | stained with DAPI
